This note sets out measurements from patent US20150158845A1, “5-HALOGEN-SUBSTITUTED OXINDOLE DERIVATIVES AND USE THEREOF FOR TREATING VASOPRESSIN-DEPENDENT DISEASES” (ABBVIE DEUTSCHLAND GMBH & CO. KG, priority 2007, published 2015).

Where only a bound is given, the exact number is not on record here.

Data set [1] deals with T1, human vasopressin V1b receptor (Homo sapiens, UniProt P47901).
T1 construct: expressed in transfected cells; host or cells: CHO-K1 (clone 3H2; cell line hV1b-3H2_CHO), membrane preparation
T1 sequence (P47901 1-424): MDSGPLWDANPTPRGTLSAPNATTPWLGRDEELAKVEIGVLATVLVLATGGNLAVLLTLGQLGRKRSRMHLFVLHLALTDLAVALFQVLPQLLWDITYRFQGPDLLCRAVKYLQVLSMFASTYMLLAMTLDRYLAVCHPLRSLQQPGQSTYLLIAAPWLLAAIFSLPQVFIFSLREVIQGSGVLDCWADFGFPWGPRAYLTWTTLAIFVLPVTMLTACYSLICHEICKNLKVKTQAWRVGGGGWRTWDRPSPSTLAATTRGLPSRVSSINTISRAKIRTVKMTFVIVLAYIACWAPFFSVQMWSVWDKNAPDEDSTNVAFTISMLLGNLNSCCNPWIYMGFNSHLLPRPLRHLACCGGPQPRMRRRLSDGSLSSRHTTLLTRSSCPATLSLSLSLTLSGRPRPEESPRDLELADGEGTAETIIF
As to the kind of experiment: Vasopressin V1b receptor binding assay. Conditions: membranes from CHO-K1 cells with human V1b receptor, 1.5 nM 3H-AVP. The method, then:
1. Vasopressin V1b Receptor Binding Assay:
The substance concentration was further diluted 1:5 in the assay mixture (2% DMSO in the mixture).
The nonspecific binding was determined with 1 M AVP (Bachem # H1780). All determinations were carried out as triplicate determinations.

Data set [2] in a line: Determination of the microsomal half-life / microsomal clearance. Type of data set: in vitro ADME. The conditions noted are these: human liver microsomes, 0.5 μM test substance, 0.25 mg microsomal protein/ml; for microsomal CLint at 0.5 μM: pH 7.4. The method, then: 5. Determination of the Microsomal Half-Life:
The metabolic stability of the compounds of the invention was determined in the following assay.
The test substances were incubated in a concentration of 0.5 μM as follows: 0.5 μM test substance are preincubated together with liver microsomes from different species (from rat, human or other species) (0.25 mg of microsomal protein/ml) in 0.05 M potassium phosphate buffer of pH 7.4 in microtiter plates at 37° C. for 5 min. The reaction is started by adding NADPH (1 mg/mL). After 0, 5, 10, 15, 20 and 30 min, 50 μl aliquots are removed, and the reaction is immediately stopped and cooled with the same volume of acetonitrile. The samples are frozen until analyzed. The remaining concentration of undegraded test substance is determined by MSMS. The half-life (T½) is determined from the gradient of the signal of test substance/unit time plot, it being possible to calculate the half-life of the test substance, assuming first order kinetics, from the decrease in the concentration of the compound with time. The microsomal clearance (mCl) is calculated from mCl=In2/T½/(content of microsomal protein in mg/ml)×1000 […] (modified from references: Di, The Society for Biomoleculur Screening, 2003, 453-462; Obach, DMD, 1999 vol 27. N 11, 1350-1359).
A general note: Liver microsomes are a subcellular fraction often used to study metabolism.

Data set [3] has as its target human vasopressin V1a receptor (Homo sapiens, UniProt P37288). As to the kind of experiment: Vasopressin V1a receptor binding assay. Conditions: selectivity: quotient of Ki at human V1a and Ki at human V1b.

human vasopressin V1a receptor, sequence (P37288 whole entry): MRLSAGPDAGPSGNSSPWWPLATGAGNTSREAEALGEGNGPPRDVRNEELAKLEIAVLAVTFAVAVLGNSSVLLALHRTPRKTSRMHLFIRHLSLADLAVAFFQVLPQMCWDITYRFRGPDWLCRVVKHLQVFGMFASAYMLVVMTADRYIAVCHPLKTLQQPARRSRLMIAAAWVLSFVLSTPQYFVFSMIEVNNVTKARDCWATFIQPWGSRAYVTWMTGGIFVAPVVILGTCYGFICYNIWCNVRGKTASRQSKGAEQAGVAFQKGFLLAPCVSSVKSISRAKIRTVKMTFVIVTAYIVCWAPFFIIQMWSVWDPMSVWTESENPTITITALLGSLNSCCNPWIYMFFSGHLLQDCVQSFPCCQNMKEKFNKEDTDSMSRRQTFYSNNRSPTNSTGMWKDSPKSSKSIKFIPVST

The Ki is the equilibrium dissociation constant of an inhibitor or competing ligand from its target. A higher Ki goes with lower affinity. `CCOc1ncc(C)cc1C1(NC(=O)N2CCC(N3CCN(C)CC3)CC2)C(=O)N(S(=O)(=O)c2ccc(OC)cc2OC)c2ccc(Cl)cc21.O=C(O)C(F)(F)F` (racemic) [Example 16, (±)-4-(4-Methylpiperazin-1-yl)piperidine-1-[5-chloro-1-(2,4-dimethoxyphenylsulfonyl)-3-(2-ethoxy-5-methylpyridin-3-yl)-2-oxo-2,3-dihydro-1H-indol-3-yl]carboxamide, trifluoroacetic acid salt] showed a Ki in data set [1] below 1 nM. Besides, the Human microsomal clearance entry in data set [2] is reported as “+ (>75-100 μl min^−1 mg^−1)”. Moreover, the “Ki(h-V1a)/Ki(h-V1b)” value in data set [3] is reported as “+ (10-<25)”.
As a reminder, the microsomal CLint is the rate of metabolic loss divided by the concentration. In data set [1], `CCOc1ncccc1C1(OC(=O)N2CCN(C3CCN(C)CC3)CC2)C(=O)N(S(=O)(=O)c2ccccc2)c2ccc(Cl)cc21.O=C(O)C(F)(F)F` (racemic) [Example 24, 1-Phenylsulfonyl-5-chloro-3-(2-ethoxypyridin-3-yl)-2-oxo-2,3-dihydro-1H-indol-3-yl (±)-4-(1-methylpiperidin-4-yl)piperazine-1-carboxylate, trifluoroacetic acid salt] showed a Ki of 1 to 10 nM. Also, in data set [2], the microsomal CLint at 0.5 μM was in the range of 50 to 75 µL/min/mg. Besides, in data set [3], the “Ki(h-V1a)/Ki(h-V1b)” value is “++ (25-75)”.
`CCOc1ncc(C)cc1C1(NC(=O)N2CCN(C3CCN(CC)CC3)CC2)C(=O)N(S(=O)(=O)c2ccc(OC)cc2OC)c2ccc(Cl)cc21.O=C(O)C(F)(F)F` (racemic) [Example 15, (±)-4-(1-Ethylpiperidin-4-yl)piperazine-1-[5-chloro-1-(2,4-dimethoxyphenylsulfonyl)-3-(2-ethoxy-5-methylpyridin-3-yl)-2-oxo-2,3-dihydro-1H-indol-3-yl]carboxamide, trifluoroacetic acid salt]: in data set [1], the Ki was below 1 nM. In data set [2], the Human microsomal clearance entry is “+ (>75-100 μl min^−1 mg^−1)”. In addition, the “Ki(h-V1a)/Ki(h-V1b)” value in data set [3] is listed as “++ (25-75)”.
`CCOc1ncccc1C1(NC(=O)N2CCC(N3CCN(C)CC3)CC2)C(=O)N(S(=O)(=O)c2ccc(OC)cc2OC)c2ccc(Cl)cc21` (single isomer, unassigned; (+)) [Example 5B, (+)-4-(4-Methylpiperazin-1-yl)piperidine-1-[5-chloro-1-(2,4-dimethoxyphenylsulfonyl)-3-(2-ethoxypyridin-3-yl)-2-oxo-2,3-dihydro-1H-indol-3-yl]carboxamide] came in with a Ki in data set [1] below 1 nM. In data set [2], this compound had a microsomal CLint at 0.5 μM below 50 µL/min/mg. The “Ki(h-V1a)/Ki(h-V1b)” value in data set [3] is given as “+++ (>75)”.
For the compound `CCOc1ncccc1C1(NC(=O)N2CCC(N3CCN(CC)CC3)CC2)C(=O)N(S(=O)(=O)c2ccc(OC)cc2OC)c2ccc(Cl)cc21` (single isomer, unassigned; (+)) [Example 8B, (+)-4-(4-Ethylpiperazin-1-yl)piperidine-1-[5-chloro-1-(2,4-dimethoxyphenylsulfonyl)-3-(2-ethoxypyridin-3-yl)-2-oxo-2,3-dihydro-1H-indol-3-yl]carboxamide], in data set [1], the inhibition constant Ki is below 1 nM. In addition, the microsomal CLint at 0.5 μM in data set [2] was in the range of 75 to 100 µL/min/mg. Also, the “Ki(h-V1a)/Ki(h-V1b)” value in data set [3] is given as “+++ (>75)”.
`CCOc1ncccc1C1(NC(=O)N2CCN(C3CCN(C)CC3)CC2)C(=O)N(S(=O)(=O)c2ccccc2)c2ccc(Cl)cc21.O=C(O)C(F)(F)F` (racemic) [Example 3, (±)-4-(1-Methylpiperidin-4-yl)piperazine-1-[1-phenylsulfonyl-5-chloro-3-(2-ethoxypyridin-3-yl)-2-oxo-2,3-dihydro-1H-indol-3-yl]carboxamide, trifluoroacetic acid salt] showed a Ki in data set [1] of 1 to 10 nM. In data set [2], the Human microsomal clearance result is “+++ (<50 μl min^−1 mg^−1)”. For the same compound, the “Ki(h-V1a)/Ki(h-V1b)” value in data set [3] was “++ (25-75)”.
`CCOc1ncccc1C1(NC(=O)N2CCN(C3CCN(C)CC3)CC2)C(=O)N(S(=O)(=O)c2ccc(OC)cc2OC)c2ccc(Cl)cc21` (racemic) [Example 1, (±)-4-(1-Methylpiperidin-4-yl)piperazin-1-[5-chloro-1-(2,4-dimethoxyphenylsulfonyl)-3-(2-ethoxypyridin-3-yl)-2-oxo-2,3-dihydro-1H-indol-3-yl]carboxamide] came in with an inhibition constant (Ki) in data set [1] below 1 nM. For the same compound, the microsomal CLint at 0.5 μM in data set [2] was 75 to 100 µL/min/mg. In data set [3], the “Ki(h-V1a)/Ki(h-V1b)” value is given as “+++ (>75)”.
For the compound `CCOc1ncc(C)cc1C1(NC(=O)N2CCN(C3CCN(C)CC3)CC2)C(=O)N(S(=O)(=O)c2ccc(OC)cc2OC)c2ccc(Cl)cc21.O=C(O)C(F)(F)F` (racemic) [Example 14, (±)-4-(1-Methylpiperidin-4-yl)piperazine-1-[5-chloro-1-(2,4-dimethoxyphenylsulfonyl)-3-(2-ethoxy-5-methylpyridin-3-yl)-2-oxo-2,3-dihydro-1H-indol-3-yl]carboxamide, trifluoroacetic acid salt], the Ki in data set [1] was below 1 nM. Besides, in data set [2], the Human microsomal clearance entry is given as “++ (50-75 μl min^−1 mg^−1)”. For the same compound, the “Ki(h-V1a)/Ki(h-V1b)” value in data set [3] is given as “+++ (>75)”.
`CCOc1ncccc1C1(NC(=O)N2CCN(C3CCN(C)CC3)CC2)C(=O)N(S(=O)(=O)c2ccc(OC)cc2OC)c2ccc(Cl)cc21` (single isomer, unassigned; (+)) [Example 1B, (+)-4-(1-Methylpiperidin-4-yl)piperazine-1-[5-chloro-1-(2,4-dimethoxyphenylsulfonyl)-3-(2-ethoxypyridin-3-yl)-2-oxo-2,3-dihydro-1H-indol-3-yl]carboxamide]: in data set [1], the Ki is below 1 nM. Also, the microsomal CLint at 0.5 μM in data set [2] is below 50 µL/min/mg. In addition, the “Ki(h-V1a)/Ki(h-V1b)” value in data set [3] is recorded as “+++ (>75)”.
`CCOc1ncccc1C1(CC(=O)N2CCN(C3CCN(C)CC3)CC2)C(=O)N(S(=O)(=O)c2ccccc2)c2ccc(Cl)cc21.O=C(O)C(F)(F)F` (racemic) [Example 29, (±)-1-Phenylsulfonyl-5-chloro-3-(2-ethoxypyridin-3-yl)-3-{2-[4-(1-methylpiperidin-4-yl)piperazin-1-yl]-2-oxoethyl}-1,3-dihydroindol-2-one, trifluoroacetic acid salt] yielded a Ki in data set [1] of 1 to 10 nM. Further, the microsomal CLint at 0.5 μM in data set [2] is below 50 µL/min/mg. The “Ki(h-V1a)/Ki(h-V1b)” value in data set [3] is given as “+ (10-<25)”.
In the case of `CCOc1ncc(C)cc1C1(NC(=O)N2CCC(N3CCN(CC)CC3)CC2)C(=O)N(S(=O)(=O)c2ccc(OC)cc2OC)c2ccc(Cl)cc21.O=C(O)C(F)(F)F` (racemic) [Example 17, (±)-4-(4-Ethylpiperazin-1-yl)piperidine-1-[5-chloro-1-(2,4-dimethoxyphenylsulfonyl)-3-(2-ethoxy-5-methylpyridin-3-yl)-2-oxo-2,3-dihydro-1H-indol-3-yl]carboxamide, trifluoroacetic acid salt], the Ki in data set [1] was below 1 nM. Also, in data set [2], the Human microsomal clearance result is “+ (>75-100 μl min^−1 mg^−1)”. Besides, the “Ki(h-V1a)/Ki(h-V1b)” value in data set [3] is listed as “+ (10-<25)”.
As to `CCOc1ncccc1C1(CC(=O)N2CCC(N3CCN(CC)CC3)CC2)C(=O)N(S(=O)(=O)c2ccc(OC)cc2OC)c2ccc(Cl)cc21.O=C(O)C(F)(F)F` (racemic) [Example 32, (±)-5-Chloro-1-(2,4-dimethoxyphenylsulfonyl)-3-(2-ethoxypyridin-3-yl)-3-{2-[4-(4-ethylpiperazin-1-yl)piperidin-1-yl]-2-oxoethyl}-1,3-dihydroindol-2-one, trifluoroacetic acid salt], in data set [1], the Ki is below 1 nM. Also, in data set [2], the microsomal CLint at 0.5 μM lay within 50 to 75 µL/min/mg. The “Ki(h-V1a)/Ki(h-V1b)” value in data set [3] was “+ (10-<25)”.
For the compound `CCOc1ncccc1C1(CC(=O)N2CCN(C3CCN(C)CC3)CC2)C(=O)N(S(=O)(=O)c2ccc(OC)cc2OC)c2ccc(Cl)cc21.O=C(O)C(F)(F)F` (racemic) [Example 28, (±)-5-Chloro-1-(2,4-dimethoxyphenylsulfonyl)-3-(2-ethoxypyridin-3-yl)-3-{2-[4-(1-methylpiperidin-4-yl)piperazin-1-yl]-2-oxoethyl}-1,3-dihydroindol-2-one, trifluoroacetic acid salt], in data set [1], the inhibition constant (Ki) is below 1 nM. In data set [2], this compound came in with an intrinsic metabolic clearance (microsomal CLint) at 0.5 μM of 75 to 100 µL/min/mg. For the same compound, in data set [3], the “Ki(h-V1a)/Ki(h-V1b)” value is “++ (25-75)”.
